Data on 15 compounds can be found in ChEMBL document CHEMBL6103619, “Discovery of a Novel CRBN-Recruiting cGAS PROTAC Degrader for the Treatment of Ulcerative Colitis” (J Med Chem, 2025).

Common to all, as to format: cell-based
The nature of assay [1]: Inhibition of dsDNA-induced cGAS signaling pathway in mouse RAW-Lucia ISG cells preincubated with compound for 24 hrs followed by HT-DNA addition and measured after 24 hrs by QUANTI-Luc luciferase reagent based assay.
The target in assay [2] is Protein cereblon/Cyclic GMP-AMP synthase (Homo sapiens, UniProt Q96SW2+Q8N884). In words: PROTAC activity at CRBN/cGAS in human THP-1 cells assessed as induction of cGAS degradation at 10 uM preincubated with compound for 40 hrs followed by HT-DNA stimulation and measured after 8 hrs by Western blot analysis relative to control. Conditions: time 48.0 hrs.
Chain of Protein cereblon/Cyclic GMP-AMP synthase (Q8N884 whole entry, looked up): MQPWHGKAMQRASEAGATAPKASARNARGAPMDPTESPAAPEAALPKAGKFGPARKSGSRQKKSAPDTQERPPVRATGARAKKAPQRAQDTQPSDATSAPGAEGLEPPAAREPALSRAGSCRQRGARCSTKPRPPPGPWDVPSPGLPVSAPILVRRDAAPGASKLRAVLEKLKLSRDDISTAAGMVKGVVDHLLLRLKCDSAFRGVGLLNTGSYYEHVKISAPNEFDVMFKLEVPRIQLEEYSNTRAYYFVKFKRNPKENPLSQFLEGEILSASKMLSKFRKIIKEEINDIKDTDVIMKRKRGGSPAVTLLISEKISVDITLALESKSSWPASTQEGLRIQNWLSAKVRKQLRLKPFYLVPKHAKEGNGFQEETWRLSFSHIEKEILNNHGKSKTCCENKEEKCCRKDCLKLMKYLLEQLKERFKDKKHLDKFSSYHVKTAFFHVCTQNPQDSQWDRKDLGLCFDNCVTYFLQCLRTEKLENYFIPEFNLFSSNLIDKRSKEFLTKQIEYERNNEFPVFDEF
Chain of Protein cereblon/Cyclic GMP-AMP synthase (Q96SW2 whole entry, looked up): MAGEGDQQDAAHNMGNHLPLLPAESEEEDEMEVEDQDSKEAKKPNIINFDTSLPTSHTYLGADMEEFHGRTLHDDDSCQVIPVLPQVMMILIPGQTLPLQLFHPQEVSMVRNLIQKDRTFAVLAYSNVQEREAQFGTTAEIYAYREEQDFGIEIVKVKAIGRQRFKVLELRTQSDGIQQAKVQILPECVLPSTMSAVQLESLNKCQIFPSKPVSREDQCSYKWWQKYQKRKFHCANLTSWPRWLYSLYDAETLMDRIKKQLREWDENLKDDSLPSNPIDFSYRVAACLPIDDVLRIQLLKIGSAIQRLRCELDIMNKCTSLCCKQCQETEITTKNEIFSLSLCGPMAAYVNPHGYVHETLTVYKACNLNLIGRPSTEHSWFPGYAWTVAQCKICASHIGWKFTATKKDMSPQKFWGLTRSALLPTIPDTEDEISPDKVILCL
Assay [3] can be described thus: Inhibition of dsDNA-induced cGAS signaling pathway in human THP1-Lucia ISG cells preincubated with compound for 24 hrs followed by HT-DNA addition and measured after 24 hrs by QUANTI-Luc luciferase reagent based assay.

With `Cn1ccc(-c2cc(Cl)c(Cl)c3[nH]c4c(c23)CN(C(=O)CNC(=O)CCC2CCN(C(=O)COc3cccc5c3C(=O)N(C3CCC(=O)NC3=O)C5=O)CC2)CC4)n1` (stereo not given), the half-maximal inhibitory concentration (IC50) in assay [1] and in assay [3] was greater than 50 µM in each case. Further, the Activity in assay [2] came to 18.9%.

On to `Cn1ccc(-c2cc(Cl)c(Cl)c3[nH]c4c(c23)CN(C(=O)CNC(=O)CCCCCCCNc2cccc3c2C(=O)N(C2CCC(=O)NC2=O)C3=O)CC4)n1` (stereo not given), for which the 50% inhibitory concentration (IC50) – broadly, the midpoint of a concentration-inhibition curve – in assay [1] was greater than 50 µM; in assay [3], 29.6 µM. For the same compound, the Activity in assay [2] turned out to be 34.2%.

For the compound `Cn1ccc(-c2cc(Cl)c(Cl)c3[nH]c4c(c23)CN(C(=O)CNC(=O)COCCOCCOCCNc2cccc3c2C(=O)N(C2CCC(=O)NC2=O)C3=O)CC4)n1` (stereo not given), the IC50 in assay [1] is greater than 50 µM; in assay [3] it was 28.1 µM. The Activity in assay [2] was 34.6%.

On to `Cn1ccc(-c2cc(Cl)c(Cl)c3[nH]c4c(c23)CN(C(=O)CNC(=O)CCCCCC#Cc2cccc3c2CN(C2CCC(=O)NC2=O)C3=O)CC4)n1` (stereo not given), for which the IC50 in assay [1] is 25.3 µM; in assay [3], 12.7 µM. The Activity in assay [2] is 54.4%.

With `Cn1ccc(-c2cc(Cl)c(Cl)c3[nH]c4c(c23)CN(C(=O)CNC(=O)CCCCCCCCNc2cccc3c2C(=O)N(C2CCC(=O)NC2=O)C3=O)CC4)n1` (stereo not given), the results for the concentration for half-maximal inhibition (IC50) in assay [1] and in assay [3] were greater than 50 µM and 37.1 µM, respectively. The Activity in assay [2] was 30.4%.

For `O=C1CCC(N2C(=O)c3cccc(NCCCCC(=O)N4CCC(Cn5cc(-c6cc(Cl)c(Cl)c7[nH]c8c(c67)CN(C(=O)CO)CC8)cn5)CC4)c3C2=O)C(=O)N1` (stereo not given), the half-maximal inhibitory concentration (IC50) in assay [1] and in assay [3] was greater than 50 µM in each case. The Activity in assay [2] was found to be 10.5%.

With `O=C1CCC(N2C(=O)c3cccc(NCCCCCCCCC(=O)N4CCC(Cn5cc(-c6cc(Cl)c(Cl)c7[nH]c8c(c67)CN(C(=O)CO)CC8)cn5)CC4)c3C2=O)C(=O)N1` (stereo not given), the IC50 in assay [1] and in assay [3] was greater than 50 µM each time. In assay [2], the Activity came out at 23.9%.

`Cn1ccc(-c2cc(Cl)c(Cl)c3[nH]c4c(c23)CN(C(=O)CNC(=O)CCCCNc2cccc3c2C(=O)N(C2CCC(=O)NC2=O)C3=O)CC4)n1` (stereo not given): the IC50 in assay [1] was 16.1 µM; in assay [3], 8.1 µM. The Activity in assay [2] came to 61.5%.

As to `Cn1ccc(-c2cc(Cl)c(Cl)c3[nH]c4c(c23)CN(C(=O)CCCCCCC#Cc2cccc3c2CN(C2CCC(=O)NC2=O)C3=O)CC4)n1` (stereo not given), the half-maximal inhibitory concentration (IC50) in assay [1] was greater than 50 µM; in assay [3], 28.8 µM. For the same compound, in assay [2], the Activity worked out at 44.7%.

Regarding `Cn1ccc(-c2cc(Cl)c(Cl)c3[nH]c4c(c23)CN(C(=O)CNC(=O)COCCNc2cccc3c2C(=O)N(C2CCC(=O)NC2=O)C3=O)CC4)n1` (stereo not given), the IC50 in assay [1] is greater than 50 µM; in assay [3], 34.2 µM. Further, in assay [2], the Activity worked out at 38.2%.

For `O=C1CCC(N2C(=O)c3cccc(NCCOCCOCC(=O)N4CCC(Cn5cc(-c6cc(Cl)c(Cl)c7[nH]c8c(c67)CN(C(=O)CO)CC8)cn5)CC4)c3C2=O)C(=O)N1` (stereo not given), the half-maximal inhibitory concentration (IC50) was greater than 50 µM in assay [1] and 33.6 µM in assay [3]. Also, the Activity in assay [2] was determined as 44.3%.

For `Cn1ccc(-c2cc(Cl)c(Cl)c3[nH]c4c(c23)CN(C(=O)CNC(=O)CCCCCC#Cc2cccc3c2C(=O)N(C2CCC(=O)NC2=O)C3=O)CC4)n1` (stereo not given), the results for the IC50 in assay [1] and in assay [3] were greater than 50 µM and 21.4 µM, respectively. The Activity in assay [2] was 57.7%.

Turning to `Cn1ccc(-c2cc(Cl)c(Cl)c3[nH]c4c(c23)CN(C(=O)CNC(=O)CCCCCNc2cccc3c2C(=O)N(C2CCC(=O)NC2=O)C3=O)CC4)n1` (stereo not given), the values for the IC50 in assay [1] and in assay [3] were 26.7 µM and 12.5 µM, respectively. For the same compound, in assay [2], the Activity worked out at 59.3%.

`Cn1ccc(-c2cc(Cl)c(Cl)c3[nH]c4c(c23)CN(C(=O)CCCC#Cc2cccc3c2CN(C2CCC(=O)NC2=O)C3=O)CC4)n1` (stereo not given): the IC50 was determined as 35.6 µM in assay [1] and 25.6 µM in assay [3]. Further, in assay [2], the Activity came out at 40.4%.

As to `Cn1ccc(-c2cc(Cl)c(Cl)c3[nH]c4c(c23)CN(C(=O)CNC(=O)CCCCC#Cc2ccc3c(c2)CN(C2CCC(=O)NC2=O)C3=O)CC4)n1` (stereo not given), the 50% inhibitory concentration (IC50) in assay [1] and in assay [3] was greater than 50 µM throughout. Further, the Activity in assay [2] was 21.9%.
